Data taken from patent US20010047099A1, “4-aminopicolinates and their use as herbicides” (priority 2000, published 2001).

Legend:
[1] = tested on: wild buckwheat (Polygonum convolvulus); experiment: Postemergence herbicidal activity; format: in vivo; details: for pest or weed control at 125 ppm: rate 125 ppm
How it was run: (§1)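 Plants are raised from seed under greenhouse conditions until the first or second true leaf appears. They are then sprayed with test solutions at known concentrations, where 1 ppm corresponds to roughly 1 g/Ha. Two weeks later, injury is rated by eye from 0 to 100%.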

[2] = tested on: cocklebur (Xanthium strumarium); experiment: Postemergence herbicidal activity; format: in vivo; details: Xanthium strumarium, post-emergence, 336 h, Table 1, visual, after 2 weeks, read-out: Post-emergent % Control XANST; for pest or weed control at 125 ppm: rate 125 ppm
How it was run: as §1

[3] = tested on: chickweed (Stellaria media); experiment: Postemergence herbicidal activity; format: in vivo; details: for pest or weed control at 125 ppm: rate 125 ppm
How it was run: as §1

[4] = tested on: velvetleaf (Abutilon theophrasti); experiment: Preemergence herbicidal activity; format: in vivo; details: Abutilon theophrasti, 504 h, Table 6 (headed Post-emergent; text: preemergence), after 3 weeks, read-out: % Control ABUTH; for pest or weed control at 280 ppm: rate 280 ppm; for pest or weed control at 560 ppm: rate 560 ppm
How it was run: (§2)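 Test compounds in acetone/DMSO were diluted in water with 0.1% Tween 155 and sprayed onto the soil surface of freshly seeded pots (loam/sand 70:30, pH about 8.1). Plants grew in a greenhouse at about 23-29° C day under a 15 h photoperiod. Injury was scored visually after 3 weeks versus untreated plants, 0-100%.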

[5] = tested on: pigweed (Amaranthus retroflexus); experiment: Preemergence herbicidal activity; format: in vivo; details: Amaranthus retroflexus, 504 h, Table 6 (headed Post-emergent; text: preemergence), after 3 weeks, read-out: % Control AMARE; for pest or weed control at 280 ppm: rate 280 ppm; for pest or weed control at 560 ppm: rate 560 ppm
How it was run: as §2

[6] = tested on: morningglory (Ipomoea hederacea); experiment: Preemergence herbicidal activity; format: in vivo; details: Ipomoea, 504 h, Table 6 (headed Post-emergent; text: preemergence), after 3 weeks, read-out: % Control IPOHE; for pest or weed control at 280 ppm: rate 280 ppm; for pest or weed control at 560 ppm: rate 560 ppm
How it was run: as §2

[7] = tested on: field bindweed (Convolvulus arvensis); experiment: Range & Pasture Crop Testing (postemergence track sprayer); format: in vivo; details: Table 10; clover pasture; postemergence
Description: (§3) By applying the well-accepted probit analysis as described by J. Berkson in Journal of the […], 48, 565 (1953) and by D. Finney in “Probit Analysis” Cambridge University Press (1952), the above data can be used to calculate GR50 and GR80 values, which are defined as growth reduction factors that correspond to the effective dose of herbicide required to kill or control 50 percent or 80 percent, respectively, of a target plant.
(§4) Rates are calculated based upon 5 doses being applied. The high rate (X), followed by serial dilutions of 1/2×, 1/4×, 1/8× and 1/16×. Compound requirements are based upon the 187 L/ha carrier volume, specifications of the delivery system (Mandel track sprayer) and generating 24 mL of technical spray material to allow for the dilutions and overage in the sprayer. [formula]
(§5) All technical materials were formulated in 97:3 (acetone:DMSO) with 0.25% X-77. The total volume of solvent is maintained at less than 7%. An overhead Mandel track sprayer calibrated to deliver 187 L/ha was used for all treatment applications (postemergence). Picloram was included as a comparison treatment.
(§6) Solutions were applied with a mechanized track-sprayer at the following settings:
(§7) Spray height: 17 inches above top of plants
(§8) This provides an application volume of 187 L/ha.
(§9) Percent weed control (burn down) was evaluated 3 weeks after treatment. Visual control on a 0-100 linear scale was used, with 0 representing no control and 100 representing total control. Burn down ratings were taken for annual and perennial weed species.

[8] = tested on: White Clover (Trifolium repens); experiment: as above; format: in vivo; details: Table 10
Description: as §3, §4, §5, §6, §7, §8, §9

[9] = tested on: Canada thistle (Cirsium arvense); experiment: as above; format: in vivo
Description: as §3, §4, §5, §6, §7, §8, §9

[10] = tested on: barnyardgrass (Echinochloa crus-galli); experiment: Postemergence herbicidal activity; format: in vivo; details: Table 3; weeds in rice; rate 250 ppm
How it was run: as §1

[11] = tested on: yellow nutsedge (Cyperus esculentus); experiment: Postemergence herbicidal activity; format: in vivo; details: Table 3; weeds in rice; rate 250 ppm
How it was run: as §1

rice (Oryza sativa) = experiment: Postemergence herbicidal activity, selectivity to rice; format: in vivo; details: Table 3; crop (rice); rate 250 ppm
Description: (§10) Seeds of the desired test plant species were planted in Grace-Sierra MetroMix® 306 planting mixture, which typically has a pH of 6.0 to 6.8 and an organic matter content of about 30 percent, in plastic pots with a surface area of 64 square centimeters. When required to ensure good germination and healthy plants, a fungicide treatment and/or other chemical or physical treatment was applied. The plants were grown for 7-21 days in a greenhouse with an approximate 15 hr photoperiod which was maintained at about 23-29° C. during the day and 22-28° C. during the night. Nutrients and water were added on a regular basis and supplemental lighting was provided with overhead metal halide 1000-Watt lamps as necessary. The plants were employed for testing when they reached the first or second true leaf stage.
A weighed amount, determined by the highest rate to be tested, of each test compound was placed in a 20 mL glass vial and was dissolved in 4 mL of a 97:3 v/v (volume/volume) mixture of acetone and dimethyl sulfoxide (DMSO) to obtain concentrated stock solutions. […] The concentrated stock solutions obtained were diluted with an aqueous mixture containing acetone, water, isopropyl alcohol, DMSO, Atplus 411F crop oil concentrate, and Triton X-155 surfactant in a 48.5:39:10:1.5:1.0:0.02 v/v ratio to obtain spray solutions of known concentration. The solutions containing the highest concentration to be tested were prepared by diluting 2 mL aliquots of the stock solution with 13 mL of the mixture and lower concentrations were prepared by serial dilution of the stock solution. […]
(§11) The treated plants and control plants were placed in a greenhouse as described above and watered by sub-irrigation to prevent wash-off of the test compounds. After 2 weeks the condition of the test plants as compared with that of the untreated plants was determined visually and scored on a scale of 0 to 100 percent where 0 corresponds to no injury and 100 corresponds to complete kill.

[12] = tested on: broadleaf dock (Rumex obtusifolia); experiment: Range & Pasture Crop Testing (postemergence track sprayer); format: in vivo; details: Table 9; rate 70 g/Ha; 3 weeks after treatment
Description: as §4, §5, §6, §7, §8, §9

[13] = tested on: crested wheatgrass (Agropyron cristatum) (grass crop); experiment: as above; format: in vivo; details: Table 9, rate 70 g/Ha, 3 weeks after treatment
Description: as §4, §5, §6, §7, §8, §9

[14] = tested on: lambsquarters (Chenopodium album); experiment: Postemergence herbicidal activity; format: in vivo; details: Table 5; rate 250 ppm
How it was run: as §1

[15] = tested on: wheat (Triticum aestivum); experiment: Postemergence herbicidal activity, selectivity to wheat; format: in vivo; details: Table 5; crop (wheat); rate 250 ppm
Description: as §10
A weighed amount, determined by the highest rate to be tested, of each test compound was placed in a 20 mL glass vial and was dissolved in 4 mL of a 97:3 v/v (volume/volume) mixture of acetone and dimethyl sulfoxide (DMSO) to obtain concentrated stock solutions. […] The concentrated stock solutions obtained were diluted with an aqueous mixture containing acetone, water, isopropyl alcohol, DMSO, Atplus 411F crop oil concentrate, and Triton X-155 surfactant in a 48.5:39:10:1.5:1.0:0.02 v/v ratio to obtain spray solutions of known concentration. The solutions containing the highest concentration to be tested were prepared by diluting 2 mL aliquots of the stock solution with 13 mL of the mixture and lower concentrations were prepared by serial dilution of the stock solution. Approximately 1.5 mL aliquots of each solution of known concentration were sprayed evenly onto each of the test plant pots using a DeVilbiss atomizer driven by compressed air pressure of 2 to 4 psi ([…]) to obtain thorough coverage of each plant. Control plants were sprayed in the same manner with the aqueous mixture. In this test an application rate of 1 ppm results in the application of approximately 1 g/Ha.
as §11

[16] = Fallopia convolvulus, post-emergence, 336 h, Table 1, visual, after 2 weeks, read-out: Post-emergent % Control POLCO
[17] = Stellaria media, post-emergence, 336 h, Table 1, visual, after 2 weeks, read-out: Post-emergent % Control STEME

| Compound | melting point [°C] | pest or weed control at 280 ppm [4] [%] | pest or weed control at 280 ppm [5] [%] | pest or weed control at 280 ppm [6] [%] | pest or weed control at 125 ppm [1, 16] [%] | pest or weed control at 125 ppm [2] [%] | pest or weed control at 125 ppm [3, 17] [%] | pest or weed control at 560 ppm [4] [%] | pest or weed control at 560 ppm [5] [%] | pest or weed control at 560 ppm [6] [%] | other results |
| --- | --- | --- | --- | --- | --- | --- | --- | --- | --- | --- | --- |
| CCCCCCOC(=O)c1nc(Cl)cc(N)c1Cl [Compound 9, n-hexyl 4-amino-3,6-dichloropyridine-2-carboxylate] | 65 to 66 | 100 | 98 | 100 | – | – | – | – | – | – | pest or weed control at 250 ppm ([1]; Fallopia convolvulus, post-emergence, 336 h, Table 1, rate 250 ppm, visual, after 2 weeks, read-out: Post-emergent % Control POLCO): 100%; pest or weed control at 250 ppm ([2]; rate 250 ppm): 100%; pest or weed control at 250 ppm ([3]; Stellaria media, post-emergence, 336 h, Table 1, rate 250 ppm, visual, after 2 weeks, read-out: Post-emergent % Control STEME): 100%; GR80 CONAR [7]: 66 g/ha; GR20 TRFRE [8]: 20.7 g/ha; GR80 CIRAR ([9]; Table 10, clover pasture, postemergence): 20.7 g/ha |
| CCNc1cc(Cl)nc(C(=O)O)c1Cl [Compound 27, 4-N-ethylamino-3,6-dichloropyridine-2-carboxylic acid] | 136 to 137 | – | – | – | 90 | 85 | 100 | 100 | 100 | 100 | post emergent evaluation - % control ECHCG [10]: 70%; post emergent evaluation - % control CYPES [11]: 50%; post emergent evaluation - % control ORYZA (rice (Oryza sativa)): 40% |
| CNc1cc(Cl)nc(C(=O)O)c1Cl [Compound 26, 4-N-Methylamino-3,6-dichloropyridine-2-carboxylic acid] | 170 to 172 | – | – | – | 95 | 90 | 90 | 100 | 100 | 100 | Post-emergent Evaluation - % control RUMOB [12]: 100%; Post-emergent Evaluation - % control AGRCR [13]: 10%; Post-emergent Evaluation - % control CIRAR ([9]; Table 9, rate 70 g/Ha, 3 weeks after treatment): 90% |
| COc1c(N)cc(Br)nc1C(=O)O [Compound 41, 4-Amino-6-bromo-3-methoxypyridine-2-carboxylic acid] | – | 90 | 40 | 85 | 100 | 80 | 90 | – | – | – | Post-emergent Evaluation - % control CHEAL [14]: 90%; Post-emergent Evaluation - % control POLCO ([1]; Table 5, rate 250 ppm): 100%; Post-emergent Evaluation - % control STEME ([3]; Table 5, rate 250 ppm): 20%; Post-emergent Evaluation - % control TRZAS [15]: 10% |
